Assay results reported in US20120016119A1, “NOVEL PYRROLO(2,3-d)PYRIMIDINE COMPOUND” (priority 2009, published 2012).

Biological target: T1, human GPR119 (Homo sapiens, UniProt Q8TDV5)
T1 construct: expressed in transfected cells; host or cells: CHO cells (LM-3 mock cells carrying luciferase reporter pLG3-CRE6-CRE-VIP); resulting line L8-18
T1 sequence (Q8TDV5 1-335): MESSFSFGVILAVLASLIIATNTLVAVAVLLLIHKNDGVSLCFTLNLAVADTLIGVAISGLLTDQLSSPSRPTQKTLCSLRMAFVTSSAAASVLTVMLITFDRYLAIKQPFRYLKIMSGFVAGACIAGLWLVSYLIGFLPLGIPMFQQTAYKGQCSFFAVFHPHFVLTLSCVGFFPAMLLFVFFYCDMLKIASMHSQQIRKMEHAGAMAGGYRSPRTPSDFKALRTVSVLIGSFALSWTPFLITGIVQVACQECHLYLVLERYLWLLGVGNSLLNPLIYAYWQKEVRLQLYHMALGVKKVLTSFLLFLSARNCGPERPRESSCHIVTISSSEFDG
Assay: GPR119 agonistic activity: cAMP production in human GPR119-expressed CHO cells (HTRF cAMP kit)
Type: cell-based
Conditions: human GPR119-expressed CHO cells (L8-18), 37° C. for 30 minutes, 500 μM IBMX
Procedure: The present experiment is directed to evaluate GPR119 agonistic activity (in vitro) of test compounds by adding the compounds to human GPR119-expressed CHO cells to determine cAMP production of the cells.
Human GPR119-expressed CHO cells (L8-18) were prepared by introducing an expression vector pMSF1-GPR119 (Geneticin-resistance) carrying human GPR119 genes into CHO cells (LM-3; Mock cells) wherein lusiferase expression vector pLG3-CRE6-CRE-VIP (Hygromycin B-resistance) were introduced according to the known method (The Journal of Biological Chemistry Vol. 274 (34), pp. 23940-23947).
Cryopreserved L8-18 cells were melted, and then suspended into 9-fold amounts of assay buffer and centrifuged (1000 rpm, 5 minutes) at room temperature. The supernatant was removed, and then the precipitated cells were resuspended into assay buffer (4 mL). Thereto was added assay buffer which contained IBMX (manufactured by Sigma, #17018-1G), and 7.5×10^4 cells/mL of cell suspension was prepared. The cell suspension was let stand at room temperature for 15 minutes, and then to each well of 96 half well white plate (manufactured by Corning Incorporated, #3693) were added the cell suspension (20 μL) and a solution of a test compound or AR231453 (5 μL; a total of 25 (final concentration: 1500 cells/well, 500 μM IBMX, 1% dimethylsulfoxide). The mixture was incubated at 37° C. for 30 minutes, and then to each well were added a 20-fold diluted solution (each 12.5 μL/well) of cAMP-d2 and Anti cAMP-Cryptate of HTRF cAMP kit (manufactured by Cisbio, #62AM4PEC). The mixture was stirred, and then was let stand for 1 hour under light shielding. A fluorescence intensity was measured by time-resolved fluorescence mode (Ex: 320 nm, Em: 665 nm, 620 nm) of Microplate Reader (ARVO or SpectraMax M5e). In ARVO, Ratios [Ratio=(665 nm/620 nm)×10^4)] of cAMP-d2 to Anti cAMP-Cryptate were calculated from the resulting fluorescence intensity, and cAMP concentrations of each well were calculated from cAMP standard curve prepared by the Ratios and GraphPad Prism. In SpectraMax M5e, cAMP concentrations of each well were calculated on the basis of a standard curve prepared by the resulting fluorescence intensity and Softmax Pro.
EC50 of test compounds were calculated by GraphPad Prism.

Row | Structure (SMILES) | EC50 [µM]
1 | CCc1cnc(N2CCC(n3cc(F)c4c(Nc5ccc(C(=O)N6CC[C@H](O)C6)cc5F)ncnc43)CC2)nc1 [Example Compound 62] | < 1
2 | CCc1cnc(N2CCC(n3cc(F)c4c(Nc5ccc(C(=O)N(C)CCCO)cc5F)ncnc43)CC2)nc1 [Example Compound 63] | < 1
3 | CC(C)Oc1cnc(N2CCC(n3cc(F)c4c(Nc5ccc(C(=O)N(C)CCO)cc5F)ncnc43)CC2)nc1 [Example Compound 153] | < 1
4 | CCc1cnc(N2CCC(n3cc(F)c4c(Nc5ccc(S(C)(=O)=O)cc5F)ncnc43)CC2)nc1 [Example Compound 77] | < 1
5 | CN(C)C(=O)c1ccc(Nc2ncnc3c2c(F)cn3C2CCN(c3ncc(C(F)(F)F)cn3)CC2)c(F)c1 [Example Compound 54] | < 1
6 | CC(C)(C)OC(=O)N1CCC(n2cc(F)c3c(Nc4ccc(-n5cncn5)cc4F)ncnc32)CC1 [Example Compound 15] | < 1
7 | CN(CCO)C(=O)c1ccc(Nc2ncnc3c2c(F)cn3C2CCN(c3ncc(OC(F)F)cn3)CC2)c(F)c1 [Example Compound 193] | < 1
8 | CN(CCCO)C(=O)c1ccc(Nc2ncnc3c2c(F)cn3C2CCN(c3noc(C(F)(F)F)n3)CC2)c(F)c1 [Example Compound 184] | < 1
9 | CC(C)Oc1cnc(N2CCC(n3cc(F)c4c(Nc5ccc(C(=O)N(C)C)cc5F)ncnc43)CC2)nc1 [Example Compound 56] | < 1
10 | CCc1cnc(N2CCC(n3cc(F)c4c(Nc5cc(F)c(C(=O)N(C)CCO)cc5F)ncnc43)CC2)nc1 [Example Compound 164] | < 1
11 | CC(C)c1noc(N2CCC(n3cc(F)c4c(Nc5ccc(C(=O)N(C)C)cc5Cl)ncnc43)CC2)n1 [Example Compound 21] | < 1
12 | CN(C)C(=O)c1ccc(Nc2ncnc3c2c(F)cn3C2CCN(C(=O)OC(C)(C)C)CC2)c(Cl)c1 [Example Compound 17] | < 1
13 | CN(CCCO)C(=O)c1ccc(Nc2ncnc3c2c(F)cn3C2CCN(c3ncc(C4CC4)cn3)CC2)c(F)c1 [Example Compound 138] | < 1
14 | CN(C)C(=O)c1ccc(Nc2ncnc3c2c(F)cn3C2CCN(C(=O)OC(C)(C)C)CC2)c(F)c1 [Example Compound 1, tert-butyl 4-[4-(4-dimethylcarbamoyl-2-fluorophenylamino)-5-fluoropyrrolo[2,3-d]pyrimidin-7-yl]piperidine-1-carboxylate] | < 1
15 | CC(C)(C)OC(=O)N1CCC(n2cc(F)c3c(Oc4ccc(S(C)(=O)=O)cc4F)ncnc32)CC1 [Example Compound 3, tert-butyl 4-[5-fluoro-4-(2-fluoro-4-mesylphenoxy)pyrrolo[2,3-d]pyrimidin-7-yl]piperidine-1-carboxylate] | < 1
16 | CC(C)(C)OC(=O)N1CCC(n2cc(F)c3c(Nc4ccc(S(C)(=O)=O)cc4Cl)ncnc32)CC1 [Example Compound 13] | < 1
17 | CC(C)OC(=O)N1CCC(n2cc(Cl)c3c(Nc4ncc(C(=O)N(C)C)cc4Cl)ncnc32)CC1 [Example Compound 2, isopropyl 4-[5-chloro-4-(3-chloro-5-dimethylcarbamoylpyridin-2-ylamino)pyrrolo[2,3-d]pyrimidin-7-yl]piperidine-1-carboxylate] | 1 to 3

System: C57BL/6N male mice
Assay: Inhibitory effect on increased blood glucose after oral glucose load in fasted mice
Type: in vivo
Conditions: 1 mg/kg orally, one hour before glucose load (3 g/kg, p.o.), C57BL/6N male mice fasted 21 hours
Procedure: C57BL/6N male mice was fasted for 21 hours, and then a stratified randomization allocation was carried out by EXSUS Ver7.6 NP (Arm Systex Co., Ltd.) based on body weights (n=8). Vehicle (solvent: 0.1% Tween 80/0.5% hydroxypropyl methylcellulose) (control group) or a suspended solution of a test compound in the vehicle (test compound group) was orally administered to the mice, and a glucose load (3 g/kg, p.o.) was carried out one hour after administration of a test compound. Blood samplings from the test mice were carried out at each time point of just before administration of drug (−60 min), immediately before glucose load (0 min), 30 minutes (30 min), 60 minutes (60 min) and 120 minutes (120 min) after glucose load. Blood glucose levels at each time point were measured by glucose CII-Test Wako (manufactured by Wako Pure Chemical Industries, Ltd.), AUC (0-120 min) was calculated in each administration group on the basis of the measured value, and evaluated by time-dependent variance analysis and Student's t-Test using EXSUS Ver7.6NP (Arm Systex Co., Ltd.).
An inhibitory effect on increased blood glucose of each test compound (A ratio value of AUC (0-120 min) of the test compound group in case that AUC (0-120 min) of the control group is 100) is shown in the following Table 36.

Row | Structure (SMILES) | Inhibitory Effect on Increased Blood Glucose (ratio value of AUC (0-120 min) of test compound group, control group = 100)
18 | O=C(c1ccc(Nc2ncnc3c2c(F)cn3C2CCN(c3noc(C(F)(F)F)n3)CC2)c(F)c1)N1CC[C@@H](O)C1 [Example Compound 178] | 88
19 | CCc1cnc(N2CCC(n3cc(F)c4c(Nc5ccc(C(=O)N6CC[C@@H](O)C6)cc5Cl)ncnc43)CC2)nc1 [Example Compound 185] | 89

Same assay, conditions: 3 mg/kg orally, one hour before glucose load (3 g/kg, p.o.), C57BL/6N male mice fasted 21 hours

Row | Structure (SMILES) | Inhibitory Effect on Increased Blood Glucose (ratio value of AUC (0-120 min) of test compound group, control group = 100)
20 | CC(C)c1noc(N2CCC(n3cc(F)c4c(Nc5ccc(C(=O)N6CCCC6)cc5F)ncnc43)CC2)n1 [Example Compound 161] | 87
21 | CC(C)Oc1cnc(N2CCC(n3cc(F)c4c(Nc5ccc(C(=O)N(C)CCO)cc5F)ncnc43)CC2)nc1 [Example Compound 153] | 84
22 | CC(C)OC(=O)N1CCC(n2cc(F)c3c(Nc4ccc(C(=O)N5CCCC5)cc4F)ncnc32)CC1 [Example Compound 163] | 86
23 | CC(C)c1cnc(N2CCC(n3cc(F)c4c(Nc5ccc(C(=O)N6CCC[C@@H](O)C6)cc5F)ncnc43)CC2)nc1 [Example Compound 132] | 90
24 | CN(CCO)C(=O)c1ccc(Nc2ncnc3c2c(F)cn3C2CCN(c3ncc(C4CC4)cn3)CC2)c(F)c1 [Example Compound 129] | 88
25 | O=C(c1ccc(Nc2ncnc3c2c(F)cn3C2CCN(c3ncc(C4CC4)cn3)CC2)c(F)c1)N1CC[C@@H](O)C1 [Example Compound 128] | 83
26 | CN(CCO)C(=O)c1ccc(Nc2ncnc3c2c(F)cn3C2CCN(c3ncc(Cl)cn3)CC2)c(F)c1 [Example Compound 134] | 82
27 | CCCc1cnc(N2CCC(n3cc(F)c4c(Nc5ccc(C(=O)N6CC[C@@H](O)C6)cc5F)ncnc43)CC2)nc1 [Example Compound 121] | 82
28 | CC(C)c1cnc(N2CCC(n3cc(F)c4c(Nc5ccc(C(=O)N(C)CCO)cc5F)ncnc43)CC2)nc1 [Example Compound 124] | 86
29 | CC(C)Oc1cnc(N2CCC(n3cc(F)c4c(Nc5ccc(C(=O)N(C)CCCO)cc5F)ncnc43)CC2)nc1 [Example Compound 154] | 86
30 | CC(C)c1nc(N2CCC(n3cc(F)c4c(Nc5ccc(C(=O)N(C)CCO)cc5F)ncnc43)CC2)no1 [Example Compound 115] | 92

Same assay, conditions: 10 mg/kg orally, one hour before glucose load (3 g/kg, p.o.), C57BL/6N male mice fasted 21 hours

Row | Structure (SMILES) | Inhibitory Effect on Increased Blood Glucose (ratio value of AUC (0-120 min) of test compound group, control group = 100)
31 | CCc1cnc(N2CCC(n3cc(F)c4c(Nc5ccc(C(=O)N6CC[C@H](O)C6)cc5F)ncnc43)CC2)nc1 [Example Compound 62] | 86
32 | CCc1cnc(N2CCC(n3cc(F)c4c(Nc5ccc(C(=O)N(C)CCO)cc5F)ncnc43)CC2)nc1 [Example Compound 8, 4-[7-[1-(5-ethylpyrimidin-2-yl)piperidin-4-yl]-5-fluoro-7H-pyrrolo[2,3-d]pyrimidin-4-ylamino]-3-fluoro-N-(2-hydroxyethyl)-N-methylbenzamide] | 83
33 | CCc1cnc(N2CCC(n3cc(F)c4c(Nc5ccc(C(=O)N(C)CCCO)cc5F)ncnc43)CC2)nc1 [Example Compound 63] | 89
34 | CCc1cnc(N2CCC(n3cc(F)c4c(Nc5ccc(C(=O)N(C)C)cc5F)ncnc43)CC2)nc1 [Example Compound 6, 4-[7-[1-(5-ethylpyrimidin-2-yl)piperidin-4-yl]-5-fluoro-7H-pyrrolo[2,3-d]pyrimidin-4-ylamino]-3-fluoro-N,N-dimethylbenzamide] | 85
